Reference: ChEMBL document CHEMBL1145219, “A new strategy to combat Alzheimer's disease. Combining radical-scavenging potential with metal-protein-attenuating ability in one molecule” (Bioorg Med Chem Lett, 2005)

Test system: Cell line
Test: Radical-scavenging potency with metal-protein-attenuating ability in human was determined
Format: functional, cell-based

Row | Compound | EC50 (Homo sapiens, Cell line) [µM] | EC50 (cell line) [µM]
1 | c1ccc2[nH]c(CN3CCNCCNCC3)nc2c1 | 0.9 | –
2 | N,N0-propylene bis-(2-acetylpyridine iminato) copper(II) | – | 2.33
3 | N,N0-ethylene bis-(2-acetylpyridine iminato) copper(II) | – | 11
4 | c1ccc2[nH]c(CN3CCNCCN(Cc4nc5ccccc5[nH]4)CC3)nc2c1 | 0.76 | –
5 | N,N0-butylene bis-(2-acetylpyridine iminato) copper(II) | – | 0.56
